# What was measured:
# Namalwa wild type cells = test: MTT cytotoxicity assay in Namalwa wild type cells; assay type: cell-based; details: 72 h incubation, read-out: IC50 (cytotoxicity, cell viability by MTT)
# Description: (§1) Namalwa 21 nM VCR (multidrug-resistant cells by exposure to vincristine (21 nM), and Namalwa wild type (ATCC CRL-1432) cells were cultured in ATCC-formulated RPMI-1640 medium with L-glutamine (2 mM), sodium bicarbonate (1.5 g L-1), glucose (4.5 g L^−1), HEPES (10 mM) and sodium pyruvate (1.0 mM). The media was supplemented with penicillin (100 U mL^−1) and streptomycin (100 μg mL^−1, Mediatech) and fetal bovine serum (FBS, 10%, BenchMark). Cells were maintained in a humid 5% CO2 atmosphere at 37° C. and subcultured every 2-3 days.
# (§2) Cytotoxicity of PCTX and compounds 2, 2& 10, 15 and 17 was determined using the MTT assay. On the day of exposure, exponentially growing cells were plated at 25,000 cells/well in 160 μL in 96-well tissue culture plates (Nunc). Cells were then incubated with medium (control) or compounds (20 μL, 10× in cell culture medium) at the indicated final concentrations (0.1-1000 nM). At 68 h, MTT reagent (5 mg mL^−1 in PBS, 20 μL/well) was added to each well. The plate was further incubated at 37° C. At 72 h the plate was centrifuged at 1400 rpm for 10 min at 4° C. and supernatants were carefully removed. DMSO (100 μL/well) was added to dissolve the water-insoluble formazan salt. The absorbance was measured at 545 nm using a microplate reader (BMG Labtech). Data points were collected in triplicate and expressed as normalized values for untreated control cells (100%). […]
# [1] = system: multidrug-resistant Namalwa cell line (MDR+ve); test: MTT cytotoxicity assay in multidrug-resistant Namalwa cells; assay type: cell-based; details: 72 h
# Description: as §1, §2
SMILES,IC50 (Namalwa wild type cells),activity (cytotoxicity) in MDR+ve cell line [1]
"CC(=O)O[C@H]1C(=O)[C@]2(C)[C@@H](O)CC3OC[C@@]3(OC(C)=O)[C@H]2[C@H](OC(=O)c2ccccc2)[C@]2(O)C[C@H](OC(=O)[C@H](OC(=O)CCC(=O)NCCOCCOCCNC(=O)OCC3C4CCC#CCCC43)[C@@H](NC(=O)c3ccccc3)c3ccccc3)C(C)=C1C2(C)C (stereo partly drawn) [Compound 2, (4S,4aS,6R,9S,11S,12S,12aR,12bS)-9-(((19R)-19-((S)-benzamido(phenyl)methyl)-1-(bicyclo[6.1.0]non-4-yn-9-yl)-3,14,17-trioxo-2,7,10,18-tetraoxa-4,13-diazaicosan-20-oyl)oxy)-12-(benzoyloxy)-4,11-dihydroxy-4a,8,13,13-tetramethyl-5-oxo-3,4,4a,5,6,9,10,11,12,12a-decahydro-1H-7,11-methanocyclodeca[3,4]benzo[1,2-b]oxete-6,12b(2aH)-diyl diacetate]",26 nM,no appreciable activity
"CC(=O)O[C@H]1C(=O)[C@@]2(C)[C@H]([C@H](OC(=O)c3ccccc3)[C@]3(O)C[C@H](OC(=O)[C@H](O)[C@@H](NC(=O)c4ccccc4)c4ccccc4)C(C)=C1C3(C)C)[C@]1(OC(C)=O)CO[C@@H]1C[C@@H]2O [PCTX, Paclitaxel, reference compound]",2 nM,
